Assay results from patent US20230382998A1, “METHODS FOR TREATING INFLAMMATORY BOWEL DISEASES WITH a4B7 INTEGRIN ANTAGONISTS” (Protagonist Therapeutics, Inc., priority 2022, published 2023).
Numbered stars: 1 amine (or outer) side, 2 acyl side, 3 side chain; on linkers, the order of the positions; unused ones are H or OH. Bridge positions count the residues as written; N and C are the ends. Square brackets hold non-standard residues; d marks the D form. Peptide text beside a SMILES is read from it. I, II: the chains in the order shown. ξ: configuration not given here. Phe(4-tBu) = CC(C)(C)c1ccc(C[C@H](N)C(=O)O)cc1; Diglycolyl = O=C(COCC(=O)[*:2])[*:1]; NMeR = CN[C@@H](CCCNC(=N)N)C(=O)O; β3hE = N[C@@H](CCC(=O)O)CC(=O)O; Thr(3ξ) = CC(O)[C@H](N)C(=O)O; X1 = O=C(c1ccccc1C[*:2])[*:1]; Pen = CC(C)(S)[C@H](N)C(=O)O

Key:
[1] = tested on: subjects with moderate to severe active ulcerative colitis; experiment: Phase 2 randomized, double-blind, placebo-controlled study of oral Compound (I), 12-week induction; format: in vivo, human; conditions: FIG. 3; for proportion of subjects achieving clinical remission at Week 12, total: 150 mg BID + 450 mg BID
Text: As used herein, the term “clinical remission rate” refers to when the symptoms of IBD have lessened to the point that they're mostly absent or gone, including endoscopic remission, wherein inflammation is seen during a colonoscopy or a sigmoidoscopy and determined by a healthcare provider that the lining of the digestive tract is improved or healed. […] As used herein, the term “compound of formula (I)” or Compound (I) refers to a peptide compound having the following structure:
The study also evaluates the pharmacokinetic (PK) and pharmacodynamics (PD) and biomarker responses to treatment with oral Compound (I).
This is a two-part study: Part 1 is a randomized, double-blind, placebo-controlled, parallel design 12-week induction treatment period in patients with moderate to severe active UC; and Part 2 is an extended treatment period of 40 weeks that will include subjects who successfully complete Part 1. Subjects who complete the Week 12 visit for Part 1 will be eligible to enter Part 2.
Part 1 is a 12-week randomized, double-blind, placebo-controlled, parallel design study in adult subjects with moderate to severe active UC. Eligible subjects are randomized 1:1:1 to Compound (I) 450 mg twice daily (BID), Compound (I) 150 mg BID, or placebo BID. Subjects must have a biopsy-confirmed diagnosis of UC. […] Subjects with a history of prior vedolizumab treatment will be excluded. Randomization will be stratified by prior failure to a TNFα antagonist or an IL-12/23 antagonist.
Primary outcome measures include the proportion of subjects achieving clinical remission at Week 12 compared to placebo. Clinical remission is determined using the Adapted Mayo score (sum of 3 subscores from the Mayo score): • Stool frequency subscore (SFS) • Rectal bleeding subscore (RBS) • Endoscopic subscore (ESS)
Efficacy is assessed, at least in part, based on the Mayo score. The Mayo score includes 4 components: Stool Frequency Subscore (SFS), Rectal Bleeding Subscore (RBS), Endoscopic Subscore (ESS) and Physician's Global Assessment (PGA). Each of the individual scores range from 0 to 3 with higher number indicating higher severity): • Complete Mayo Score is a sum of all 4 subscores (SFS, RBS, ESS and PGA) and ranges from 0 to 12 points. • Adapted Mayo Score is a sum of 3 subscores (SFS, RBS and ESS). The Adapted Mayo score ranges from 0 to 9 points. • Partial Mayo Score is a sum of 3 subscores (SFS, RBS and PGA) ranging from 0 to 9 points.
Blood samples for measurement of Compound (I) plasma concentrations will be collected at 0 (within 1 hour pre-dose) and at 1, 2, and 4 hours post-dose on Week 0 (Study Day 1) and Week 12. A single pre-dose sample should be collected within 1 hour prior to the first dose of the day on each clinic visit.
Blood (4 mL) samples for PK analysis will be obtained in K2EDTA tubes prior to dosing and at the time points delineated in the study schedule. All samples (except those collected post-dose on Day 0 and Day 84) should be obtained prior to the daily dosing of study drug (i.e. Ctrough).

[2] = DTT (Dithiothreitol) assay, stability to gastric environment under reduced conditions; format: physicochemical
Protocol: The compound of formula (I) or a pharmaceutically acceptable salt thereof comprises a half-life from approximately 1 minute to approximately 180 minutes.

[3] = trough concentration quartile Q1 at week 12
[4] = trough concentration quartile Q2 at week 12
[5] = trough concentration quartile Q3 at week 12
[6] = trough concentration quartile Q4 at week 12

Q: Which results are given for CC(C)C[C@@H]1NC(=O)[C@H](C(C)O)NC(=O)[C@H](CC(=O)O)NC(=O)[C@H](CO)NC(=O)[C@H](CCCNC(=N)N)N(C)C(=O)c2ccccc2CSC(C)(C)[C@@H](C(=O)N[C@@H](Cc2ccc(C(C)(C)C)cc2)C(=O)N[C@@H](CCC(=O)O)CC(=O)N[C@H](CCCCNC(=O)COCC(=O)NCCCC[C@@H](NC(=O)C[C@H](CCC(=O)O)NC(=O)[C@H](Cc2ccc(C(C)(C)C)cc2)NC(=O)[C@H]2NC(=O)[C@H](CC(C)C)NC(=O)[C@H](C(C)O)NC(=O)[C@H](CC(=O)O)NC(=O)[C@H](CO)NC(=O)[C@H](CCCNC(=N)N)N(C)C(=O)c3ccccc3CSC2(C)C)C(=O)O)C(=O)O)NC1=O (stereo partly drawn) [compound of formula (I)] (I: [NMeR]SD[Thr(3ξ)]L[Pen][Phe(4-tBu)][β3hE][dK]-OH / II: [NMeR]SD[Thr(3ξ)]L[Pen][Phe(4-tBu)][β3hE][dK]-OH; linker I:9-II:9 via Diglycolyl; linker I:N-I:6, II:N-II:6 via X1)?
A: proportion of subjects achieving clinical remission at Week 12, total [1, 3]: 33.3%; proportion of subjects achieving clinical remission at Week 12, part being 450 mg BID dose [1, 3]: 26.7%; proportion of subjects achieving clinical remission at Week 12, total [1, 4]: 40%; proportion of subjects achieving clinical remission at Week 12, part being 450 mg BID dose [1, 4]: 26.7%; proportion of subjects achieving clinical remission at Week 12, total [1, 5]: 13.3%; proportion of subjects achieving clinical remission at Week 12, part being 450 mg BID dose [1, 5]: 6.7%; proportion of subjects achieving clinical remission at Week 12, total [1, 6]: 18.8%; proportion of subjects achieving clinical remission at Week 12, part being 450 mg BID dose [1, 6]: 6.3%; half-life [2]: > 2 h
